Consider seven molecules from PubChem BioAssay (NCI).

Some test systems named below: SNB-19 CNS; UO-31 renal; ACHN renal; MOLT-4 leukemia; OVCAR-4 ovarian; COLO 205 colon; KM12 colon; SF-539 CNS; NCI-H226 lung; SR leukemia.
Assay in all cases: NCI tumour cell line growth inhibition, 48 h

Molecules are shown by their SMILES.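 Where inhibition never reached the appropriate level, the endpoint shown equals the highest concentration tested. Otherwise, values were interpolated linearly from a five-concentration, 48-hour dose response in 96-well plates. GI50 = concentration required for 50% inhibition of growth. The concentration for full growth arrest is given as TGI.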 Where a SMILES comes first, the peptide text is derived from it. [ ]: non-standard residue; d: D form. The star is where a group is joined. ξ: configuration not given here. ξF = NC(Cc1ccccc1)C(=O)O; Cbz = O=C(OCc1ccccc1)*; Aib = CC(C)(N)C(=O)O

As for `COC(=O)C(C)(C)NC(=O)C(Cc1ccccc1)NC(=O)C(C)(C)NC(=O)OCc1ccccc1` (centres undefined) (Cbz-[Aib]-[ξF]-[Aib]-OMe), the TGI in the experiment on SNB-19 CNS, in the experiment on UO-31 renal, with ACHN renal, in the experiment on MOLT-4 leukemia, in the experiment on OVCAR-4 ovarian and in the experiment on COLO 205 colon was over 100 µM throughout.
`CC(=O)ON1C(=O)c2cccc3cccc(c23)C1=O`: the TGI with KM12 colon is over 100 µM; in the experiment on SNB-19 CNS, over 100 µM; in the experiment on UO-31 renal, over 100 µM; with SF-539 CNS, 48.3 µM; in the experiment with ACHN renal, over 100 µM; in the experiment on MOLT-4 leukemia, 43 µM. In addition, the TGI with OVCAR-4 ovarian is 40.7 µM; in the experiment with COLO 205 colon, 86.7 µM.
`CC(C)(CCCCC(C)(C)C1NC(=O)N1)C1NC(=O)N1`: the TGI in the experiment on KM12 colon, in the experiment with SNB-19 CNS, in the experiment on UO-31 renal, in the experiment with SF-539 CNS, in the experiment with ACHN renal and in the experiment with NCI-H226 lung was over 10 µM in each case. Also, the TGI in the experiment with MOLT-4 leukemia, in the experiment on OVCAR-4 ovarian and with COLO 205 colon was over 10 µM in each case.
With `Nc1c(-c2ccccc2[N+](=O)[O-])nc2ccccn12`, the TGI in the experiment on KM12 colon, with UO-31 renal, in the experiment on SR leukemia, in the experiment with ACHN renal, with NCI-H226 lung and in the experiment on MOLT-4 leukemia was over 100 µM each time. For the same molecule, the TGI in the experiment on COLO 205 colon was over 100 µM.
With `CCOC(=O)CCC(NC(=O)OCc1ccccc1)C(=O)NC(CCC(=O)OCC)C(=O)NNC(=O)OC(C)(C)C` (centres undefined), the TGI in the experiment with KM12 colon, with SNB-19 CNS, in the experiment with UO-31 renal, with SR leukemia, in the experiment on NCI-H226 lung and in the experiment with MOLT-4 leukemia was over 100 µM each time. Also, the TGI in the experiment with COLO 205 colon is over 100 µM.
As to `c1cncc(O[Si](Oc2cccnc2)(Oc2cccnc2)Oc2cccnc2)c1`, the TGI in the experiment on KM12 colon, in the experiment with SNB-19 CNS, in the experiment with UO-31 renal, in the experiment on SR leukemia, in the experiment on SF-539 CNS and with NCI-H226 lung was over 100 µM each time. The TGI in the experiment with MOLT-4 leukemia, in the experiment on OVCAR-4 ovarian and in the experiment on COLO 205 colon was over 100 µM in each case.
For the molecule `COc1cc(-c2n/c(=C\c3c(O)[nH]c4cc(Cl)ccc34)cc3c2=Nc2ccccc2-3)cc(OC)c1OC`, the GI50 was 5.89 µM in the experiment on KM12 colon; 3.52 µM in the experiment on SNB-19 CNS; 18.3 µM with UO-31 renal; 2.38 µM in the experiment on SR leukemia; 11.2 µM in the experiment with SF-539 CNS; 4.49 µM with ACHN renal. The GI50 is 3.85 µM in the experiment with NCI-H226 lung, 2.72 µM with MOLT-4 leukemia and 2.59 µM with OVCAR-4 ovarian. For the same molecule, the TGI in the experiment on KM12 colon is over 100 µM; in the experiment on SNB-19 CNS it was 15.5 µM; in the experiment with UO-31 renal, over 100 µM; with SR leukemia, 6.35 µM; with SF-539 CNS it was 30.8 µM; in the experiment on ACHN renal, 22.2 µM. The TGI came out at 21.9 µM with NCI-H226 lung, 8.35 µM with MOLT-4 leukemia and 6.36 µM with OVCAR-4 ovarian.
